These results are taken from patent publication US20260250290A1 (BRISTOL-MYERS SQUIBB COMPANY, priority 2023, published 2026).

A word on the IC50: it is the concentration at which inhibition is half-maximal.

In the experiment the target is T1, full length SGK1 (Homo sapiens, UniProt O00141).
T1 construct: 125 μM full length SGK1 (Life Technologies Part #PR7358A); purchased Life Technologies PR7358A
T1 sequence (O00141 1-431): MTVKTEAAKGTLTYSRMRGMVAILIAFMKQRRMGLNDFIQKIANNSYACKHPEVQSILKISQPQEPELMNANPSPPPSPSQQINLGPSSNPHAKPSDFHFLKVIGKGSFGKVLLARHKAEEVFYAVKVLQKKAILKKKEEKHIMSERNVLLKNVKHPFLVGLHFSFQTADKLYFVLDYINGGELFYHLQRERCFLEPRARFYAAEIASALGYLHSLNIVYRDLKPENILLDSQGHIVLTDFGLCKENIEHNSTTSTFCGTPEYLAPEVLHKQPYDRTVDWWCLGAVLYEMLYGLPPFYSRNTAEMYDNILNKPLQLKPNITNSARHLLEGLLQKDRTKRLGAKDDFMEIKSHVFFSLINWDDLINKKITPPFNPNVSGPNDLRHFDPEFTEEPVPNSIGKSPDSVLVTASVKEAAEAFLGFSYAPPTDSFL
Kind of experiment: SGK1 inhibition Assay A (Caliper LabChip electrophoretic separation of fluorescent peptide substrate and phosphorylated product). In kind it is biochemical. The conditions noted are these: Assay A; 20 μM ATP, 40 min incubation; read-out: SGK1 IC50.

Where a name gives a salt, the structure may show the parent alone.

For `N=c1ccc(-c2cc(N3CCC[C@@H](NC(=O)c4ccc(Cl)s4)C3)c3c(N)ncnn23)cn1C(F)F` [Example 683], the IC50 came out at 193 nM.
Turning to `COC(=O)N1CC=C(c2cc(N3CCC[C@@H](NC(=O)c4n[nH]c5ccc(C#N)cc45)C3)c3c(N)ncnn23)C1` [Example 684, methyl (R)-3-(4-amino-5-(3-(5-cyano-1H-indazole-3-carboxamido)piperidin-1-yl)pyrrolo[2,1-f][1,2,4]triazin-7-yl)-2,5-dihydro-1H-pyrrole-1-carboxylate], the IC50 came out at 261 nM.
The result for `N#Cc1ccc2[nH]nc(C(=O)N[C@@H]3CCCN(c4cc(-c5cncnc5)n5ncnc(N)c45)C3)c2c1` [Example 685, (R)—N-(1-(4-amino-7-(pyrimidin-5-yl)pyrrolo[2,1-f][1,2,4]triazin-5-yl)piperidin-3-yl)-5-cyano-1H-indazole-3-carboxamide] reads 276 nM; that for `COC(=O)N1CC=C(c2cc(N3CCC[C@@H](NC(=O)c4sc5ccc(F)cc5c4OC4CCNCC4)C3)c3c(N)ncnn23)C1` [Example 686, methyl (R)-3-(4-amino-5-(3-(5-fluoro-3-(piperidin-4-yloxy)benzo[b]thiophene-2-carboxamido)piperidin-1-yl)pyrrolo[2,1-f][1,2,4]triazin-7-yl)-2,5-dihydro-1H-pyrrole-1-carboxylate], 7 nM.
The value for `Nc1ncnn2c(-c3cncnc3)cc(N3CCC[C@@H](NC(=O)c4sc5ccc(F)cc5c4OC4CCNCC4)C3)c12` [Example 688, (R)—N-(1-(4-amino-7-(pyrimidin-5-yl)pyrrolo[2,1-f][1,2,4]triazin-5-yl)piperidin-3-yl)-5-fluoro-3-(piperidin-4-yloxy)benzo[b]thiophene-2-carboxamide] was 161 nM; that for `COC(=O)N1CC=C(c2cc(N3CCC[C@@H](NC(=O)c4n[nH]c5ccc(N)cc45)C3)c3c(N)ncnn23)C1` [Example 689, methyl (R)-3-(4-amino-5-(3-(5-amino-1H-indazole-3-carboxamido)piperidin-1-yl)pyrrolo[2,1-f][1,2,4]triazin-7-yl)-2,5-dihydro-1H-pyrrole-1-carboxylate] was 53 nM.
The result for `Nc1ccc2[nH]nc(C(=O)N[C@@H]3CCCN(c4cc(-c5cncnc5)n5ncnc(N)c45)C3)c2c1` [Example 690, (R)-5-amino-N-(1-(4-amino-7-(pyrimidin-5-yl)pyrrolo[2,1-f][1,2,4]triazin-5-yl)piperidin-3-yl)-1H-indazole-3-carboxamide] reads 507 nM; that for `Cc1cc(-c2cc(N3CCC[C@@H](NC(=O)c4sc(Cl)cc4OCCN(C)C)C3)c3c(N)ncnn23)cn(C)c1=O` [Example 691, (R)—N-(1-(4-amino-7-(1,5-dimethyl-6-oxo-1,6-dihydropyridin-3-yl)pyrrolo[2,1-f][1,2,4]triazin-5-yl)piperidin-3-yl)-5-chloro-3-(2-(dimethylamino)ethoxy)thiophene-2-carboxamide], 115 nM; that for `CCn1cc(-c2cc(N3CCC[C@@H](NC(=O)c4sc(Cl)cc4OCCN(C)C)C3)c3c(N)ncnn23)cc(C)c1=O` [Example 692, (R)—N-(1-(4-amino-7-(1-ethyl-5-methyl-6-oxo-1,6-dihydropyridin-3-yl)pyrrolo[2,1-f][1,2,4]triazin-5-yl)piperidin-3-yl)-5-chloro-3-(2-(dimethylamino)ethoxy)thiophene-2-carboxamide], 98 nM.
As for `Cc1cc(-c2cc(N3CCC[C@@H](NC(=O)c4sc(Cl)cc4OCCN(C)C)C3)c3c(N)ncnn23)cn(C(C)C)c1=O` [Example 693, (R)—N-(1-(4-amino-7-(1-isopropyl-5-methyl-6-oxo-1,6-dihydropyridin-3-yl)pyrrolo[2,1-f][1,2,4]triazin-5-yl)piperidin-3-yl)-5-chloro-3-(2-(dimethylamino)ethoxy)thiophene-2-carboxamide], the IC50 is 69 nM.
The result for `Cc1cc(-c2cc(N3CCC[C@@H](NC(=O)c4sc(Cl)cc4OCCN(C)C)C3)c3c(N)ncnn23)cn(CC(C)C)c1=O` [Example 694, (R)—N-(1-(4-amino-7-(1-isobutyl-5-methyl-6-oxo-1,6-dihydropyridin-3-yl)pyrrolo[2,1-f][1,2,4]triazin-5-yl)piperidin-3-yl)-5-chloro-3-(2-(dimethylamino)ethoxy)thiophene-2-carboxamide] reads 103 nM; that for `Nc1ncnn2c(C#Cc3ccncc3)cc(N3CCC[C@@H](NC(=O)c4ccc(Cl)s4)C3)c12` [Example 695, (R)—N-(1-(4-amino-7-(pyridin-4-ylethynyl)pyrrolo[2,1-f][1,2,4]triazin-5-yl)piperidin-3-yl)-5-chlorothiophene-2-carboxamide, TFA salt], 242 nM.
The value for `N#Cc1ccc(C(=O)N[C@@H]2CCCN(c3cc(C#N)n4ncnc(N)c34)C2)s1` [Example 696, (R)—N-(1-(4-amino-7-cyanopyrrolo[2,1-f][1,2,4]triazin-5-yl)piperidin-3-yl)-5-cyanothiophene-2-carboxamide] was 80 nM.
The value for `CC(=O)N1CC=C(c2cc(N3CCC[C@@H](NC(=O)c4cccc(OCCN5CCOCC5)n4)C3)c3c(N)ncnn23)C1` [Example 700, (R)—N-(1-(7-(1-acetyl-2,5-dihydro-1H-pyrrol-3-yl)-4-aminopyrrolo[2,1-f][1,2,4]triazin-5-yl)piperidin-3-yl)-6-(2-morpholinoethoxy)picolinamide] was 25 nM.
As for `CC(=O)N1CC=C(c2cc(N3CCC[C@@H](NC(=O)c4cccc(OCCN5CCN(C)CC5)n4)C3)c3c(N)ncnn23)C1` [Example 701, (R)-N-(1-(7-(1-acetyl-2,5-dihydro-1H-pyrrol-3-yl)-4-aminopyrrolo[2,1-f][1,2,4]triazin-5-yl)piperidin-3-yl)-6-(2-(4-methylpiperazin-1-yl)ethoxy)picolinamide], the IC50 was determined as 11 nM.
`CC(=O)N1CC=C(c2cc(N3CCC[C@@H](NC(=O)c4cccc(OCCN(C)C)n4)C3)c3c(N)ncnn23)C1` [Example 702, (R)-N-(1-(7-(1-acetyl-2,5-dihydro-1H-pyrrol-3-yl)-4-aminopyrrolo[2,1-f][1,2,4]triazin-5-yl)piperidin-3-yl)-6-(2-(dimethylamino)ethoxy) picolinamide]: the IC50 is 12 nM.
The result for `CC(=O)N1CC=C(c2cc(N3CCC[C@@H](NC(=O)c4cccc(N5CCOCC5)n4)C3)c3c(N)ncnn23)C1` [Example 703, (R)-N-(1-(7-(1-acetyl-2,5-dihydro-1H-pyrrol-3-yl)-4-aminopyrrolo[2,1-f][1,2,4]triazin-5-yl)piperidin-3-yl)-6-morpholinopicolinamide] reads 29 nM.
The value for `CC(=O)N1CC=C(c2cc(N3CCC[C@@H](NC(=O)c4cccc(N5CCN(C)CC5)n4)C3)c3c(N)ncnn23)C1` [Example 704, (R)-N-(1-(7-(1-acetyl-2,5-dihydro-1H-pyrrol-3-yl)-4-aminopyrrolo[2,1-f][1,2,4]triazin-5-yl)piperidin-3-yl)-6-(4-methylpiperazin-1-yl)picolinamide] was 11 nM; that for `CC(=O)N1CC=C(c2cc(N3CCC[C@@H](NC(=O)C4CC5(C4)CC(F)(F)C5)C3)c3c(N)ncnn23)C1` [Example 705, (R)-N-(1-(7-(1-acetyl-2,5-dihydro-1H-pyrrol-3-yl)-4-aminopyrrolo[2,1-f][1,2,4]triazin-5-yl)piperidin-3-yl)-6,6-difluorospiro[3.3]heptane-2-carboxamide] was 760 nM; that for `CC(=O)N1CC=C(c2cc(N3CCC[C@@H](NC(=O)c4ccnc(OCCN(C)C)c4)C3)c3c(N)ncnn23)C1` [Example 706, (R)-N-(1-(7-(1-acetyl-2,5-dihydro-1H-pyrrol-3-yl)-4-aminopyrrolo[2,1-f][1,2,4]triazin-5-yl)piperidin-3-yl)-2-(2-(dimethylamino)ethoxy) isonicotinamide] was 57 nM.
Take `CC(=O)N1CC=C(c2cc(N3CCC[C@@H](NC(=O)c4ccnc(OCCN5CCOCC5)c4)C3)c3c(N)ncnn23)C1` [Example 707, (R)-N-(1-(7-(1-acetyl-2,5-dihydro-1H-pyrrol-3-yl)-4-aminopyrrolo[2,1-f][1,2,4]triazin-5-yl)piperidin-3-yl)-2-(2-morpholinoethoxy) isonicotinamide]: the IC50 was 68 nM.
The value for `CC(=O)N1CC=C(c2cc(N3CCC[C@@H](NC(=O)c4nccn4C)C3)c3c(N)ncnn23)C1` [Example 708] was 494 nM; that for `CC(=O)N1CC=C(c2cc(N3CCC[C@@H](NC(=O)c4cccc(OC5CCN(C)CC5)n4)C3)c3c(N)ncnn23)C1` [Example 709, (R)-N-(1-(7-(1-acetyl-2,5-dihydro-1H-pyrrol-3-yl)-4-aminopyrrolo[2,1-f][1,2,4]triazin-5-yl)piperidin-3-yl)-6-((1-methylpiperidin-4-yl)oxy)picolinamide] was 16 nM.
The value for `CC(=O)N1CC=C(c2cc(N3CCC[C@@H](NC(=O)c4cccc(C5CC5)n4)C3)c3c(N)ncnn23)C1` [Example 710, (R)-N-(1-(7-(1-acetyl-2,5-dihydro-1H-pyrrol-3-yl)-4-aminopyrrolo[2,1-f][1,2,4]triazin-5-yl)piperidin-3-yl)-6-cyclopropylpicolinamide,] was 13 nM.
`CC(=O)N1CC=C(c2cc(N3CCC[C@@H](NC(=O)C4CC(F)(F)C4)C3)c3c(N)ncnn23)C1` [Example 711, (R)-N-(1-(7-(1-acetyl-2,5-dihydro-1H-pyrrol-3-yl)-4-aminopyrrolo[2,1-f][1,2,4]triazin-5-yl)piperidin-3-yl)-3,3-difluorocyclobutane-1-carboxamide]: the half-inhibitory concentration (IC50) was 997 nM.
